Measurements reported in patent publication US20070112043A1, “Acylated and non-acylated imidazo[2,1-b]-1,3,4,-thiadiazole-2-sulfonamides, and uses thereof” (priority 2003, published 2007).
Values after ≈ are worked out from the molar mass of the structure shown. Values joined by “and” are separate entries in the source; they are usually repeats but may differ in a detail not shown here. Equal values may be shown once. “Also recorded” adds a separate entry of the source. Read-outs that look alike come from different tables or passages of the source.

Tests used:
15N neuroblastoma cells = assay: Alamar blue viability assay, 15N neuroblastoma; assay type: cell-based; details: cellular viability after 48 hours; compound dissolved in DMSO
Protocol: In order to investigate the anti-cancer potential of compounds represented by formula I-a, 15N neuroblastoma cells lines were treated with compound and assayed for cellular viability after 48 hours. The cellular viability of 15N neuroblastomas treated with compounds 1, 5, 6, 11, and 13 (dissolved in DMSO) are summarized in Table 5 (see Compound 152).
Compounds were tested for anti-cancer properties using the Alamar blue viability assay. Daoy human medulloblastoma cells of 15N neuroblastoma cells were plated at a density of 5000 cells per well of a 96 well plate and cultured in RPMI media supplemented with antibiotics and 5% fetal bovine serum. Cells in culture were incubated with compound for 48 hours after which time Alamar blue was added to the culture media. After 4 hours media was transferred to opaque white plates and fluorescence of transformed alamar blue was measured at excitation 535/emission 595).

Microsomal stability = assay type: in vitro ADME
Male Sprague-Dawley rats = assay: Rat model of cisplatin induced neuropathy (SNCV); assay type: in vivo; details: for efficacy in cisplatin model of peripheral neuropathy: dose not stated
Protocol: (§1) Male Sprague-Dawley rats were administered 2.5 mg/kg cisplatin daily, for five consecutive days to achieve a final cumulative dose of 12.5 mg/kg. On the third day following the final cisplatin injection, animals received compounds SC at concentrations of (3, 10, and 30 mg/kg). Dosing continued Monday through Friday for three consecutive weeks. The effect of cisplatin on peripheral nerve function, and the ability of the compounds to attenuate the cisplatin effect were determined after three weeks of drug treatment by measuring the sensory nerve conduction velocity (SNCV) in the caudal nerve of the tail. Stimulating electrodes were used to deliver 2 mA pulses once per second for 1.5 min. The resulting compound sensory nerve action potentials were averaged, and the mean response onset time was determined from the averaged response. Two mean response times were determined, the second being 20 mm distal from the first. The difference in onset time between the two recordings was determined and used to calculate the conductance velocity.
Male Sprague-Dawley rats (weighing 200-225 g on arrival) were intraperitoneally administered 2.5 mg/kg cisplatin daily, for five consecutive days to achieve a final cumulative dose of 12.5 mg/kg. On the third day following the final cisplatin injection, animals received compounds SC at concentrations of (3, 10, and 30 mg/kg). Dosing continued Monday through Friday for three consecutive weeks.
as §1, with “The” for “Male Sprague-Dawley rats were administered 2.5 mg/kg cisplatin daily, for five consecutive days to achieve a final cumulative dose of 12.5 mg/kg. On the third day following the final cisplatin injection, animals received compounds SC at concentrations of (3, 10, and 30 mg/kg). Dosing continued Monday through Friday for three consecutive weeks. The”, “velocity. [formula]” for “velocity.”
The results of these experiments were combined, and ANOVA was performed, followed by a Fisher LSD test.

[1] = Stability of solutions/formulations; assay type: physicochemical; details: for Stability of HPCD formulation: 10 wt/vol % HPCD, room temperature; for Stability in 10 wt/vol HPCD: PBS/HPCD (25:75) solution
Source text: (§2) This is illustrated for compound 15 in Table 7.

[2] = Pharmacokinetics of primary sulfonamides and Na salts (oral, SC); assay type: in vivo
Protocol: HPCD formulations of compounds represented by formula I also display improved pharmacokinetic properties as compared to compounds dissolved in water.
When compound 2 is administered at 10 mg/kg SC excellent plasma drug concentrations are observed_(Cmax=2.0 μg/mL, C1/2=0.8 hrs). […]

sciatic nerve = details: 1 and 10 mg/kg; cited from earlier work
[3] = Solubility in water and formulations; details: for Solubility 10 wt/vol % HPCD water: Na salts in aqueous 10 wt/vol % HPCD; for Solubility Water: Na salts in water; for Solubility in 10 wt/vol HPCD: PBS/HPCD (25:75) solution
Protocol: Alternatively, the sodium salt can be prepared in situ by dissolving the free acid in phosphate buffered saline (PBS) that has been buffered to a pH of 7.4. The solubility and stability of these solutions can be improved by the use of an aqueous soluble co-solvent such as, but not limited to HPCD. This solubility can be further improved by the addition of surfactants such as PEG 400. In general, the free acid is suspended in 10 wt/vol % HPDC (10 g dissolved in 100 mL water) and treated with 0.5M PBS (pH 7.4) such that the volumes are in a ratio of 75:25.

SCG neurons = details: cited from earlier work
log P = assay type: physicochemical
pH of formulation = assay type: physicochemical; details: PBS/HPCD (25:75) solution
Source text: as §2

[4] = Conversion to primary sulfonamide in rat primary hepatocytes; assay type: in vitro ADME; details: 90 minutes
Protocol: Compound 15 is converted to compound 1 in the presence of liver microsomes using the procedure described by Cresteil, T., et al. (Cresteil, T., et al. Am. Soc. Pharm. Exper. Therapeutics, 2002, 30, 438-445). Upwards of 50% conversion is observed after 60 minutes. When incubated with rat primary hepatocytes, the conversion of compounds 15, 37, and 44 to their respective primary sulfonamides, 1, 11, and 13, is observed.

[5] = gavage 10 mg/kg, CMC/Tween 80 (semi-)suspension
[6] = Taxol induced cell death, read-out: Taxol SCG IC50

Row | Compound | Stability in 10 wt/vol HPCD [1] [weeks] | log P (log P) | pH (pH of formulation) | Solubility in 10 wt/vol HPCD [3] [µg/mL] | further results
1 | NS(=O)(=O)c1nn2c(Br)c(-c3ccccc3)nc2s1 [5-Br-6-Ph-ITS, 5-Bromo-6-phenylmidazo[2,1-b]-1,3,4,-thiadiazole-2-sulfonamide, reference compound] |  |  |  |  | IC50 (15N neuroblastoma cells): 3 µM; degradation in microsomal fractions (Microsomal stability): rapidly degraded; also recorded: rapidly consumer by microsomal fractions; Microsomal Stability (1 hr) (Microsomal stability): 0%
2 | [NH-]S(=O)(=O)c1nn2cc(-c3ccccc3)nc2s1.[Na+] [Compound 2] |  |  |  |  | Cisplatin-induced loss in SNCV (Male Sprague-Dawley rats; 10-30 mg/kg, data not shown): protective; efficacy in cisplatin model of peripheral neuropathy (Male Sprague-Dawley rats): efficacy; Stability of HPCD formulation [1]: >14 days; C1/2 ([2]; SC 10 mg/kg): 0.8 h; plasma Cmax ([2]; SC 10 mg/kg, 10 wt/vol % HPCD solution): 2000 ng/mL; C1/2 [2, 5]: 0.9 h; oral bioavailability [2, 5]: improved; Cmax ([2]; gavage 10 mg/kg, aqueous 0.5 wt/vol % CMC/0.5 wt/vol % Tween 80 (semi-)suspension): 560 ng/mL; functional recovery (toe spread) (sciatic nerve): improved recovery; Solubility 10 wt/vol % HPCD water [3]: 20000 µg/mL; Solubility Water [3]: 10000 µg/mL
3 | NS(=O)(=O)c1nn2cc(-c3ccc(N4CCOCC4)cc3)nc2s1 [Compound 5] |  |  |  |  | IC50 (15N neuroblastoma cells): ~20 µM and 20 µM; Microsomal Stability (1 hr) (Microsomal stability): 100%; IC50 (SCG neurons; [6]): 7 µM; IC50 (SCG neurons; anti-NGF induced cell death, read-out: anit-NGF SCG IC50): 22 µM
4 | [NH-]S(=O)(=O)c1nn2cc(-c3ccc(N4CCOCC4)cc3)nc2s1.[Na+] [Compound 6] |  |  |  |  | Cisplatin-induced loss in SNCV (Male Sprague-Dawley rats; 10-30 mg/kg, data not shown): protective; efficacy in cisplatin model of peripheral neuropathy (Male Sprague-Dawley rats): efficacy; Stability of HPCD formulation [1]: >14 days; Solubility 10 wt/vol % HPCD water [3]: 15000 µg/mL; Solubility Water [3]: 2300 µg/mL
5 | NS(=O)(=O)c1nn2cc(-c3ccc4c(c3)OCCCO4)nc2s1 [Compound 7] |  |  |  |  | IC50 (SCG neurons; [6]): 7 µM
6 | COc1cccc(-c2ccc(-c3cn4nc(S(N)(=O)=O)sc4n3)cc2)c1 [Compound 9] |  |  |  |  | IC50 (15N neuroblastoma cells): 5 µM; Microsomal Stability (1 hr) (Microsomal stability): 74%; IC50 (SCG neurons; [6]): 3 µM
7 | COc1cccc(-c2ccc(-c3cn4nc(S([NH-])(=O)=O)sc4n3)cc2)c1.[Na+] [Compound 10] |  |  |  |  | Cisplatin-induced loss in SNCV (Male Sprague-Dawley rats; 10-30 mg/kg, data not shown): protective; efficacy in cisplatin model of peripheral neuropathy (Male Sprague-Dawley rats): efficacy; Stability of HPCD formulation [1]: >14 days; functional recovery (toe spread) (sciatic nerve): improved recovery; Solubility 10 wt/vol % HPCD water [3]: 10000 µg/mL
8 | [NH-]S(=O)(=O)c1nn2cc(-c3ccc(-c4cccc(C(F)(F)F)c4)cc3)nc2s1.[Na+] [Compound 12] |  |  |  |  | Cisplatin-induced loss in SNCV (Male Sprague-Dawley rats; 10-30 mg/kg, data not shown): protective; efficacy in cisplatin model of peripheral neuropathy (Male Sprague-Dawley rats): efficacy; Stability of HPCD formulation [1]: >14 days; Solubility 10 wt/vol % HPCD water [3]: 4000 µg/mL; Solubility Water [3]: 1400 µg/mL
9 | [NH-]S(=O)(=O)c1nn2cc(-c3ccc(Oc4ccc(Cl)cc4)cc3)nc2s1.[Na+] [Compound 14] |  |  |  |  | Cisplatin-induced attenuation of SNCV (Male Sprague-Dawley rats; 10 mg/kg): prevented; Cisplatin-induced loss in SNCV (Male Sprague-Dawley rats; 10 and 30 mg/kg): prevented; efficacy in cisplatin model of peripheral neuropathy (Male Sprague-Dawley rats): efficacy; Stability of HPCD formulation [1]: >14 days; Solubility 10 wt/vol % HPCD water [3]: 20000 µg/mL; Solubility Water [3]: 10000 µg/mL
10 | CCCC(=O)NS(=O)(=O)c1nn2cc(-c3ccccc3)nc2s1 [Compound 16] | >4 | 3.67 | 7.4 | 4000 (≈ 11.4 mM) | 
11 | CC(C)(C)OC(=O)NCC(=O)NS(=O)(=O)c1nn2cc(-c3ccccc3)nc2s1 [Compound 18] | >4 | 3.32 | 7.4 | 10000 (≈ 22.9 mM) | 
12 | CC(=O)NCC(=O)NS(=O)(=O)c1nn2cc(-c3ccccc3)nc2s1 [Compound 20] | >4 | 1.45 | 7.4 | 10000 (≈ 26.4 mM) | 
13 | O=C(O)CCC(=O)NS(=O)(=O)c1nn2cc(-c3ccccc3)nc2s1 [Compound 22] | >4 | 2.26 | 7.4 | 8000 (≈ 21 mM) | 
14 | CSCCC(NC(=O)OC(C)(C)C)C(=O)NS(=O)(=O)c1nn2cc(-c3ccccc3)nc2s1 (stereo not shown) [Compound 23] | >1 | 3.37 | 7.4 | 5000 (≈ 9.77 mM) | 
15 | CC(=O)NS(=O)(=O)c1nn2cc(-c3ccc(N4CCOCC4)cc3)nc2s1 [Compound 31] | >4 | 2.48 | 7.4 | 10000 (≈ 24.5 mM) | Cisplatin-induced attenuation of SNCV (Male Sprague-Dawley rats; 30 mg/kg SC): protective activity
16 | CC(=O)NS(=O)(=O)c1nn2cc(-c3ccc(Oc4ccc(Cl)cc4)cc3)nc2s1 [Compound 44] |  |  |  |  | conversion rate to primary sulfonamide [4]: 12%
17 | COCC(=O)NS(=O)(=O)c1nn2cc(-c3ccc(Oc4ccc(Cl)cc4)cc3)nc2s1 [Compound 45] |  |  |  |  | Cisplatin-induced attenuation of SNCV (Male Sprague-Dawley rats; 30 mg/kg SC): protective activity

The next lines start with results.

Row | Stability in 10 wt/vol HPCD [1] [weeks] | log P (log P) | pH (pH of formulation) | Solubility in 10 wt/vol HPCD [3] [µg/mL] | Compound | further results
18 |  | 2.14 |  |  | COCC(=O)NS(=O)(=O)c1nn2cc(-c3ccc(N4CCOCC4)cc3)nc2s1 [Compound 32] | 
19 | >1 | 5.19 | 7.4 | 10000 (≈ 21.4 mM) | CC(=O)NS(=O)(=O)c1nn2cc(-c3ccc(-c4cccc(C(F)(F)F)c4)cc3)nc2s1 [Compound 37] | dissolution ([3]; 25 mg in 1 mL PEG 400/ethanol (50:50) + ethanolamine (20 μL)): clear solution
20 | >1 | 4.85 | 7.4 | 10000 (≈ 20.1 mM) | COCC(=O)NS(=O)(=O)c1nn2cc(-c3ccc(-c4cccc(C(F)(F)F)c4)cc3)nc2s1 [Compound 39] | Cisplatin-induced attenuation of SNCV (Male Sprague-Dawley rats; 30 mg/kg SC): protective activity
21 | >1 | 6.26 | 7.4 | 5000 (≈ 10.1 mM) | CCCC(=O)NS(=O)(=O)c1nn2cc(-c3ccc(-c4cccc(C(F)(F)F)c4)cc3)nc2s1 [Compound 40] | 
22 | >1 | 4.96 | 7.4 | 10000 (≈ 18.5 mM) | COCCOCC(=O)NS(=O)(=O)c1nn2cc(-c3ccc(-c4cccc(C(F)(F)F)c4)cc3)nc2s1 [Compound 41] | 
23 | >4 | 4.35 | 7.4 | 10000 (≈ 17.1 mM) | COCCOCCOCC(=O)NS(=O)(=O)c1nn2cc(-c3ccc(-c4cccc(C(F)(F)F)c4)cc3)nc2s1 [Compound 42] | 
24 | >1 | 5.76 | 7.4 | 5000 (≈ 9.53 mM) | CC(C)(C)OC(=O)NS(=O)(=O)c1nn2cc(-c3ccc(-c4cccc(C(F)(F)F)c4)cc3)nc2s1 [Compound 43] | 
